Activity calls are given as the source filed them. No cut-off for these calls is given here.
Assays:
[1] = Toxicity in Mus musculus Kunming (mouse); format: organism-based; settings: in vivo
Oryctolagus cuniculus [2] = assay: Toxicity in hyperlipidemic New Zealand Oryctolagus cuniculus (rabbit) assessed as histopathological examination of liver at 5 to 15 mg/kg/day, po for 2 months by hematoxylin-eosin staining analysis; format: organism-based; set-up: route oral; settings: in vivo
Oryctolagus cuniculus [3] = assay: Toxicity in hyperlipidemic New Zealand Oryctolagus cuniculus (rabbit) assessed as alanine aminotransferase level at 10 mg/kg/day, po for 2 months (reference value: 92.14 +/- 14.3 U/l); format: organism-based; set-up: route oral; settings: in vivo
Oryctolagus cuniculus [4] = assay: Toxicity in hyperlipidemic New Zealand Oryctolagus cuniculus (rabbit) assessed as total bilirubin level at 15 mg/kg/day, po for 2 months (reference value: 28.45 +/- 11.55 Umol/l); format: organism-based; set-up: route oral; settings: in vivo
Oryctolagus cuniculus [5] = assay: Antihyperlipidemic activity in high fat-high cholesterol fed New Zealand Oryctolagus cuniculus (rabbit) assessed as low-density lipoprotein-cholesterol level in blood at 5 mg/kg, po for 40 days (reference value: 3.47 +/- 0.44 mmol/l); format: functional
Oryctolagus cuniculus [6] = assay: Antihyperlipidemic activity in high fat-high cholesterol fed New Zealand Oryctolagus cuniculus (rabbit) assessed as high-density lipoprotein-cholesterol level in blood at 15 mg/kg, po for 40 days (reference value: 0.67 +/- 0.22 mmol/l); format: functional
Oryctolagus cuniculus [7] = assay: Antihyperlipidemic activity in high fat-high cholesterol fed New Zealand Oryctolagus cuniculus (rabbit) assessed as low-density lipoprotein-cholesterol level in blood at 15 mg/kg, po for 40 days (reference value: 3.45 +/- 0.56 mmol/l); format: functional
Oryctolagus cuniculus [8] = assay: Toxicity in hyperlipidemic New Zealand Oryctolagus cuniculus (rabbit) assessed as effect on heart coefficient at 5 to 15 mg/kg/day, po for 2 months; format: organism-based; set-up: route oral; settings: in vivo
Oryctolagus cuniculus [9] = assay: Antihyperlipidemic activity in high fat-high cholesterol fed New Zealand Oryctolagus cuniculus (rabbit) assessed as triglyceride level in blood at 10 mg/kg, po for 40 days (reference value: 2.07 +/- 0.33 mmol/l); format: functional
Oryctolagus cuniculus [10] = assay: Antihyperlipidemic activity in high fat-high cholesterol fed New Zealand Oryctolagus cuniculus (rabbit) assessed as total cholesterol level in blood at 15 mg/kg, po for 40 days (reference value: 8.74 +/- 0.53 mmol/l); format: functional
Oryctolagus cuniculus [11] = assay: Antihyperlipidemic activity in high fat-high cholesterol fed New Zealand Oryctolagus cuniculus (rabbit) assessed as high-density lipoprotein-cholesterol level in blood at 5 mg/kg, po for 40 days (reference value: 0.69 +/- 0.02 mmol/l); format: functional
Oryctolagus cuniculus [12] = assay: Reduction in hepatic steatosis and appearance of inflammatory cell in high fat-high cholesterol fed New Zealand Oryctolagus cuniculus (rabbit) at 5 mg/kg, po for 2 months by hematoxylin-eosin staining analysis; format: functional, organism-based; set-up: dose 5 mg/kg
Oryctolagus cuniculus [13] = assay: Toxicity in hyperlipidemic New Zealand Oryctolagus cuniculus (rabbit) assessed as blood urea nitrogen level at 5 mg/kg/day, po for 2 months (reference value: 7.25 +/- 1.46 mmol/l); format: organism-based; set-up: route oral; settings: in vivo
Oryctolagus cuniculus [14] = assay: Toxicity in hyperlipidemic New Zealand Oryctolagus cuniculus (rabbit) assessed as effect on kidney coefficient at 5 to 15 mg/kg/day, po for 2 months; format: organism-based; set-up: route oral; settings: in vivo
Oryctolagus cuniculus [15] = assay: Toxicity in hyperlipidemic New Zealand Oryctolagus cuniculus (rabbit) assessed as alanine aminotransferase level at 15 mg/kg/day, po for 2 months (reference value: 92.14 +/- 14.3 U/l); format: organism-based; set-up: route oral; settings: in vivo
Oryctolagus cuniculus [16] = assay: Toxicity in hyperlipidemic New Zealand Oryctolagus cuniculus (rabbit) assessed as histopathological examination of kidney at 5 to 15 mg/kg/day, po for 2 months by hematoxylin-eosin staining analysis; format: organism-based; set-up: route oral; settings: in vivo
Oryctolagus cuniculus [17] = assay: Antihyperlipidemic activity in high fat-high cholesterol fed New Zealand Oryctolagus cuniculus (rabbit) assessed as high-density lipoprotein-cholesterol level in blood at 10 mg/kg, po for 40 days (reference value: 0.69 +/- 0.02 mmol/l); format: functional
Oryctolagus cuniculus [18] = assay: Toxicity in hyperlipidemic New Zealand Oryctolagus cuniculus (rabbit) assessed as effect on pancreas coefficient at 5 to 15 mg/kg/day, po for 2 months; format: organism-based; set-up: route oral; settings: in vivo
Oryctolagus cuniculus [19] = assay: Toxicity in hyperlipidemic New Zealand Oryctolagus cuniculus (rabbit) assessed as morbidity at 5 to 15 mg/kg/day, po for 2 months; format: organism-based; set-up: route oral; settings: in vivo
Oryctolagus cuniculus [20] = assay: Toxicity in hyperlipidemic New Zealand Oryctolagus cuniculus (rabbit) assessed as blood urea nitrogen level at 10 mg/kg/day, po for 2 months (reference value: 7.25 +/- 1.46 mmol/l); format: organism-based; set-up: route oral; settings: in vivo
Oryctolagus cuniculus [21] = assay: Antihyperlipidemic activity in high fat-high cholesterol fed New Zealand Oryctolagus cuniculus (rabbit) assessed as low-density lipoprotein-cholesterol level in blood at 10 mg/kg, po for 40 days (reference value: 3.47 +/- 0.44 mmol/l); format: functional
Oryctolagus cuniculus [22] = assay: Antihyperlipidemic activity in high fat-high cholesterol fed New Zealand Oryctolagus cuniculus (rabbit) assessed as triglyceride level in blood at 15 mg/kg, po for 40 days (reference value: 2.07 +/- 0.33 mmol/l); format: functional
Oryctolagus cuniculus [23] = assay: Antihyperlipidemic activity in high fat-high cholesterol fed New Zealand Oryctolagus cuniculus (rabbit) assessed as total cholesterol level in blood at 10 mg/kg, po for 40 days (reference value: 8.74 +/- 0.53 mmol/l); format: functional
Oryctolagus cuniculus [24] = assay: Toxicity in high fat-high cholesterol fed New Zealand Oryctolagus cuniculus (rabbit) assessed as body weight at 15 mg/kg, po for 40 days; format: organism-based; set-up: dose 15 mg/kg, route oral; settings: in vivo, 960 h
Oryctolagus cuniculus [25] = assay: Toxicity in hyperlipidemic New Zealand Oryctolagus cuniculus (rabbit) assessed as total bilirubin level at 10 mg/kg/day, po for 2 months (reference value: 28.45 +/- 11.55 Umol/l); format: organism-based; set-up: route oral; settings: in vivo
Oryctolagus cuniculus [26] = assay: Antihyperlipidemic activity in high fat-high cholesterol fed New Zealand Oryctolagus cuniculus (rabbit) assessed as triglyceride level in blood at 15 mg/kg, po for 40 days (reference value: 2.11 +/- 0.43 mmol/l); format: functional
Oryctolagus cuniculus [27] = assay: Antihyperlipidemic activity in high fat-high cholesterol fed New Zealand Oryctolagus cuniculus (rabbit) assessed as total cholesterol level in blood at 15 mg/kg, po for 40 days (reference value: 8.89 +/- 0.53 mmol/l); format: functional
Oryctolagus cuniculus [28] = assay: Toxicity in hyperlipidemic New Zealand Oryctolagus cuniculus (rabbit) assessed as histopathological examination of heart at 5 to 15 mg/kg/day, po for 2 months by hematoxylin-eosin staining analysis; format: organism-based; set-up: route oral; settings: in vivo
Oryctolagus cuniculus [29] = assay: Toxicity in hyperlipidemic New Zealand Oryctolagus cuniculus (rabbit) assessed as alanine aminotransferase level at 5 mg/kg/day, po for 2 months (reference value: 92.14 +/- 14.3 U/l); format: organism-based; set-up: route oral; settings: in vivo
Oryctolagus cuniculus [30] = assay: Toxicity in hyperlipidemic New Zealand Oryctolagus cuniculus (rabbit) assessed ashistopathological examination of pancreas at 5 to 15 mg/kg/day, po for 2 months by hematoxylin-eosin staining analysis; format: organism-based; set-up: route oral; settings: in vivo
Oryctolagus cuniculus [31] = assay: Antihyperlipidemic activity in high fat-high cholesterol fed New Zealand Oryctolagus cuniculus (rabbit) assessed as triglyceride level in blood at 5 mg/kg, po for 40 days (reference value: 2.07 +/- 0.33 mmol/l); format: functional
Oryctolagus cuniculus [32] = assay: Toxicity in hyperlipidemic New Zealand Oryctolagus cuniculus (rabbit) assessed as blood urea nitrogen level at 15 mg/kg/day, po for 2 months (reference value: 7.25 +/- 1.46 mmol/l); format: organism-based; set-up: route oral; settings: in vivo

CCCCCCCCCCCCCCCCc1c2c(OC)c(OC)ccc2cc2[n+]1CCc1cc3c(cc1-2)OCO3.[Cl-] [8-HEXADECYL-BERBERINE CHLORIDE]
LD50 [1]: > 1000 mg/kg | Activity (Oryctolagus cuniculus [2]): Non-toxic | Activity (Oryctolagus cuniculus [3]): 71.53 U/L | Activity (Oryctolagus cuniculus [4]): 12.8 µmol/L | Activity (Oryctolagus cuniculus [5]): 2.67e+06 nmol/L | Activity (Oryctolagus cuniculus [6]): 750000 nmol/L | Activity (Oryctolagus cuniculus [7]): 2.02e+06 nmol/L | Activity (Oryctolagus cuniculus [8]): Non-toxic | Activity (Oryctolagus cuniculus [9]): 1.89e+06 nmol/L | Activity (Oryctolagus cuniculus [10]): 2.28e+06 nmol/L | Activity (Oryctolagus cuniculus [11]): 700000 nmol/L | inhibition (Oryctolagus cuniculus [12]): Active | Activity (Oryctolagus cuniculus [13]): 5.45 mmol/L | Activity (Oryctolagus cuniculus [14]): Non-toxic | Activity (Oryctolagus cuniculus [15]): 64.63 U/L | Activity (Oryctolagus cuniculus [16]): Non-toxic | Activity (Oryctolagus cuniculus [17]): 720000 nmol/L | Activity (Oryctolagus cuniculus [18]): Non-toxic | Activity (Oryctolagus cuniculus [19]): Non-toxic | Activity (Oryctolagus cuniculus [20]): 4.73 mmol/L | Activity (Oryctolagus cuniculus [21]): 2.46e+06 nmol/L | Activity (Oryctolagus cuniculus [22]): 1.25e+06 nmol/L | Activity (Oryctolagus cuniculus [23]): 4.26e+06 nmol/L | Activity (Oryctolagus cuniculus [24]): Non-toxic | Activity (Oryctolagus cuniculus [25]): 13.3 µmol/L | Activity (Oryctolagus cuniculus [26]): 1.58e+06 nmol/L | Activity (Oryctolagus cuniculus [27]): 2.22e+06 nmol/L | Activity (Oryctolagus cuniculus [28]): Non-toxic | Activity (Oryctolagus cuniculus [29]): 82.36 U/L | Activity (Oryctolagus cuniculus [30]): Non-toxic | Activity (Oryctolagus cuniculus [31]): 1.95e+06 nmol/L | Activity (Oryctolagus cuniculus [32]): 4.36 mmol/L
